Key:
[1] = Body weight of tumor model mice; assay type: in vivo, BALB/C nude mouse; conditions: BEL-7402 model nude mice
Excerpt: (§1) • (1) Inoculate human hepatoma cell line BEL-7402 below back skin of BALB/C nude mouse.

[2] = system: human hepatoma cell line BEL-7402; conditions: BALB/C nude mouse
Excerpt: as §1

[3] = In vivo half-life period of calcitonin after vein injection; design: species or system new zealand white rabbit; conditions: rabbit, injection through vein
[4] = 0.2 ml intraperitoneal injection every day, after 10 d

Compound | Weight Before treatment [1] [g] | Weight After treatment [1, 4] [g] | Tumor After treatment [2, 4] [mm^3] | Tumor Before treatment ([2]; liver-implanted tumor) [mm^3] | in vivo half-life period [3] [h]
COc1cccc2c1C(=O)c1c(O)c3c(c(O)c1C2=O)C[C@@](O)(C(=O)CO)C[C@@H]3O[C@H]1C[C@H](N)[C@H](O)[C@H](C)O1 [Adriamycin amycin, adriamycin] | 20.03 | 20.1 | 50.17 | 42.93 | 
calcitonin [ordinary calcitonin] |  |  |  |  | 2
